The values that follow come from patent US10821100B2, “Triazolone compounds as mPGES-1 inhibitors” (Glenmark Pharmaceuticals S.A., priority 2012, dated 2020).

The assay addresses T1, Recombinant human mPGES-1 (Homo sapiens, UniProt O14684).
T1 construct: made in house; host or cells: CHO cells (crude microsomal fractions)
T1 sequence (O14684 1-152): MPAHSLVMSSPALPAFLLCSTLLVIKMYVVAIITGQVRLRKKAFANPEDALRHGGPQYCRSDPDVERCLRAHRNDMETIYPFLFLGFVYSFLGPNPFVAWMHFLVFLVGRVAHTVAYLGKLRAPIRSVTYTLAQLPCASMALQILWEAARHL
In words: In-vitro screening of mPGES-1 inhibitors (inhibition of PGE2 formation from PGH2, HTRF detection). The class given is biochemical. The conditions noted are these: mPGES-1 enzyme; for inhibition at 1 µM: 1 μM test compound, read-out: Percentage inhibition at 1 μM; for inhibition at 1 µM / inhibition at 10 µM: crude microsomal fractions; for inhibition at 10 µM: 10 μM test compound, read-out: Percentage inhibition at 10 μM; for IC50: class symbols. In a few lines:
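Crude CHO-expressed microsomes (40–60 μg/mL protein) preincubated 10 min with compound in 0.1 M potassium phosphate/2 mM EDTA containing 2.5 mM GSH, 0.5% DMSO final. PGH2 (15 μM) reacted 1 min, stopped with stannous chloride. PGE2 quantified by HTRF, IC50 from nonlinear regression of percent inhibition.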
A general note: TR-FRET usually uses a lanthanide donor and a delayed reading to cut background.

`CC(C)(C)C(=O)NCc1ccc(Cl)c(-c2nn(C3CCCCC3)c(=O)[nH]2)c1F` [Example-103, N-(4-Chloro-3-(1-cyclohexyl-5-oxo-4,5-dihydro-1H-1,2,4-triazol-3-yl)-2-fluorobenzyl)pivalamide]: the inhibition (in general, the drop in the measured response relative to a control, in per cent) at 1 µM was 19.9% and the inhibition at 10 µM was 51.1%.
Turning to `O=C(NCc1ccc(Cl)c(-c2nn(-c3ccc(C(F)(F)F)cc3)c(=O)[nH]2)c1)c1ccccc1F` [Example-104, N-(4-Chloro-3-(5-oxo-1-(4-(trifluoromethyl)phenyl)-4,5-dihydro-1H-1,2,4-triazol-3-yl)benzyl)-2-fluorobenzamide], the inhibition at 1 µM stood at 96.9%, the inhibition at 10 µM was 99.5% and the IC50 (commonly the midpoint of a concentration-inhibition curve) was less than 0.05 µM.
The like results for `O=C(NCc1ccc(Cl)c(-c2nn(-c3ccc(C(F)(F)F)cc3)c(=O)[nH]2)c1)c1ccno1` [Example-105, N-(4-Chloro-3-(5-oxo-1-(4-(trifluoromethyl)phenyl)-4,5-dihydro-H-1,2,4-triazol-3-yl)benzyl)isoxazole-5-carboxamide] were, in that order, 73.9%, 96% and greater than 0.1 µM.
The like results for `Cc1ccc(CNC(=O)C(F)(F)F)c(C)c1-c1nn(-c2ccc(C(F)(F)F)cc2)c(=O)[nH]1` [Example-106, N-(3-(1-(4-(trifluoromethyl)phenyl)-4,5-dihydro-5-oxo-1H-1,2,4-triazol-3-yl)-2,4-dimethylbenzyl)-2,2,2-trifluoroacetamide] were, in that order, 92%, 96.8% and greater than 0.1 µM.
On to `Cc1ccc(CNC(=O)[C@H]2CCCO2)c(C)c1-c1nn(-c2ccc(C(F)(F)F)cc2)c(=O)[nH]1` [Example-107, (R)—N-(2,4-Dimethyl-3-(5-oxo-1-(4-(trifluoromethyl)phenyl)-4,5-dihydro-1H-1,2,4-triazol-3-yl)benzyl)tetrahydrofuran-2-carboxamide], for which the inhibition at 1 µM came out at 56.1% and the inhibition at 10 µM is 90.5%.
Take `Cc1ccc(CNC(=O)C(C)(C)C)c(C)c1-c1nn(-c2ccc(C(F)(F)F)cc2)c(=O)[nH]1` [Example-108, N-(3-(1-(4-(Trifluoromethyl)phenyl)-4,5-dihydro-5-oxo-1H-1,2,4-triazol-3-yl)-2,4-dimethylbenzyl)pivalamide]: the inhibition at 1 µM is 89.8%, the inhibition at 10 µM is 99.7% and the IC50 is greater than 0.1 µM.
Regarding `O=C(NCc1ccc(Cl)c(-c2nn(-c3ccc(C(F)(F)F)cc3)c(=O)[nH]2)c1)[C@@H]1CCCO1` [Example-109, (S)—N-(4-Chloro-3-(1-(4-(trifluoromethyl)phenyl)-4,5-dihydro-5-oxo-1H-1,2,4-triazol-3-yl)benzyl)-tetrahydro furan-2-carboxamide], the inhibition at 1 µM amounted to 97.1%, the inhibition at 10 µM worked out at 97.2% and the concentration for half-maximal inhibition (IC50) is 0.05 to 0.1 µM.
For the compound `Cn1ccnc1C(=O)NCc1ccc(Cl)c(-c2nn(-c3ccc(C(F)(F)F)cc3)c(=O)[nH]2)c1` [Example-110, N-(4-Chloro-3-(1-(4-(trifluoromethyl)phenyl)-4,5-dihydro-5-oxo-1H-1,2,4-triazol-3-yl)benzyl)-1-methyl-1H-imidazole-2-carboxamide], the inhibition at 1 µM was determined as 47.2% and the inhibition at 10 µM is 95.1%.
As to `CC(C)(C)C#Cc1ccc(-c2nn(-c3c(Cl)ccc(CNC(=O)C(C)(C)C)c3F)c(=O)[nH]2)cc1` [Example-111, N-(4-Chloro-2-fluoro-3-(4,5-dihydro-3-(4-(3,3-dimethylbut-1-ynyl)phenyl)-5-oxo-1,2,4-triazol-1-yl)benzyl)pivalamide], the inhibition at 1 µM came to 87.2%, the inhibition at 10 µM worked out at 96.2% and the concentration for half-maximal inhibition (IC50) was less than 0.05 µM.
The like results for `CC(C)(C)C(=O)NCc1ccc(Cl)c(-n2nc(-c3ccc(C#CC4CC4)cc3)[nH]c2=O)c1F` [Example-112, N-(4-Chloro-3-(3-(4-(2-cyclopropylethynyl)phenyl)-4,5-dihydro-5-oxo-1,2,4-triazol-1-yl)-2-fluorobenzyl)pivalamide] were, in that order, 99.5%, 99.8% and less than 0.05 µM.
For `O=C(NCc1cc(-c2nn(-c3ccc(C(F)(F)F)cc3)c(=O)[nH]2)c(Cl)cc1F)C(F)(F)F` [Example-113, N-(4-chloro-2-fluoro-5-(1-(4-(trifluoromethyl)phenyl)-4,5-dihydro-5-oxo-1H-1,2,4-triazol-3-yl)benzyl)-2,2,2-trifluoroacetamide] the same measures were 99.3%, 99.1% and less than 0.05 µM.
For `CC(C)(C)C(=O)NCc1cc(-c2nn(-c3ccc(C(F)(F)F)cc3)c(=O)[nH]2)c(Cl)cc1F` [Example-114, N-(4-Chloro-2-fluoro-5-(1-(4-(trifluoromethyl)phenyl)-4,5-dihydro-S-oxo-1H-1,2,4-triazol-3-yl)benzyl)pivalamide] the same measures were 99.1%, 98.4% and less than 0.05 µM.
As to `CC(C)(CO)C(=O)NCc1ccc(Cl)c(-c2nn(-c3ccc(C(F)(F)F)cc3)c(=O)[nH]2)c1` [Example-115, N-(4-Chloro-3-(1-(4-(trifluoromethyl)phenyl)-4,5-dihydro-5-oxo-1H-1,2,4-triazol-3-yl)benzyl)-3-hydroxy-2,2-dimethylpropanamide], the inhibition at 1 µM came to 96.5%, the inhibition at 10 µM came out at 98.2% and the IC50 is less than 0.05 µM.
For `O=C(NCc1ccc(Cl)c(-c2nn(-c3ccc(Cl)c(F)c3)c(=O)[nH]2)c1)C(F)(F)F` [Example-116, N-(4-chloro-3-(1-(4-chloro-3-fluorophenyl)-4,5-dihydro-5-oxo-1H-1,2,4-triazol-3-yl)benzyl)-2,2,2-trifluoroacetamide] the same measures were 98%, 95.5% and less than 0.05 µM.
For the compound `CC1(C)CCC(n2nc(-c3cc(CNC(=O)C(F)(F)F)ccc3Cl)[nH]c2=O)CC1` [Example-117, N-(4-chloro-3-(4,5-dihydro-1-(4,4-dimethylcyclohexyl)-5-oxo-1H-1,2,4-triazol-3-yl)benzyl)-2,2,2-trifluoroacetamide], the inhibition at 1 µM worked out at 67.9% and the inhibition at 10 µM was 95%.
Turning to `CC1(C)CCC(n2nc(-c3cc(CNC(=O)C(C)(C)C)ccc3Cl)[nH]c2=O)CC1` [Example-118, N-(4-Chloro-3-(4,5-dihydro-1-(4,4-dimethylcyclohexyl)-5-oxo-1H-1,2,4-triazol-3-yl)benzyl)pivalamide], the inhibition at 1 µM is 76.2%, the inhibition at 10 µM is 87.8% and the IC50 was greater than 0.1 µM.
For `O=C(NCc1cc(-c2nn(-c3ccc(C(F)(F)F)cc3)c(=O)[nH]2)c(Cl)cc1F)[C@H]1CCCO1` [Example-119, (R)—N-(4-chloro-2-fluoro-5-(5-oxo-1-(4-(trifluoromethyl)phenyl)-4,5-dihydro-1H-1,2,4-triazol-3-yl)benzyl)tetrahydrofuran-2-carboxamide] the same measures were 88.7%, 94.3% and less than 0.05 µM.
In the case of `CC(C)(C)n1nc(-c2cc(CNC(=O)C(F)(F)F)ccc2Cl)[nH]c1=O` [Example-120, N-(3-(1-tert-butyl-4,5-dihydro-5-oxo-1H-1,2,4-triazol-3-yl)-4-chlorobenzyl)-2,2,2-trifluoroacetamide], the inhibition at 1 µM amounted to 11.4% and the inhibition at 10 µM stood at 46%.
As to `CC(C)(C)C(=O)NCc1ccc(Cl)c(-c2nn(C(C)(C)C)c(=O)[nH]2)c1` [Example-121, N-(3-(1-tert-Butyl-4,5-dihydro-5-oxo-1H-1,2,4-triazol-3-yl)-4-chlorobenzyl)pivalamide], the inhibition at 1 µM worked out at 16.3% and the inhibition at 10 µM was 72.5%.
For the compound `COCC(C)(C)C(=O)NCc1ccc(Cl)c(-c2nn(-c3ccc(C(F)(F)F)cc3)c(=O)[nH]2)c1` [Example-122, N-(4-Chloro-3-(1-(4-(trifluoromethyl)phenyl)-4,5-dihydro-5-oxo-1H-1,2,4-triazol-3-yl)benzyl)-3-methoxy-2,2-dimethylpropanamide], the inhibition at 1 µM is 92.2%, the inhibition at 10 µM was 93.5% and the IC50 was less than 0.05 µM.
The like results for `CC(C)(C)C(=O)NCc1ccc(Cl)c(-c2nn(-c3ccc(Cl)c(F)c3)c(=O)[nH]2)c1` [Example-123, N-(4-Chloro-3-(1-(4-chloro-3-fluorophenyl)-4,5-dihydro-5-oxo-1H-1,2,4-triazol-3-yl)benzyl)pivalamide] were, in that order, 93.8%, 100% and less than 0.05 µM.
With `CC1(C)CCC(n2nc(-c3cc(CNC(=O)C(F)(F)F)c(F)cc3Cl)[nH]c2=O)CC1` [Example-124, N-(4-chloro-2-fluoro-5-(4,5-dihydro-1-(4,4-dimethylcyclohexyl)-5-oxo-1H-1,2,4-triazol-3-yl)benzyl)-2,2,2-trifluoroacetamide], the inhibition at 1 µM was determined as 28% and the inhibition at 10 µM amounted to 89%.
For `CC1(C)CCC(n2nc(-c3cc(CNC(=O)C(C)(C)C)c(F)cc3Cl)[nH]c2=O)CC1` [Example-125, N-(4-Chloro-2-fluoro-5-(4,5-dihydro-1-(4,4-dimethylcyclohexyl)-5-oxo-1H-1,2,4-triazol-3-yl)benzyl)pivalamide] the same measures were 79.9% and 95%.
